# T1: zebrafish monoamine oxidase (zMAO) (Danio rerio, UniProt Q6NSN2)
# T1 sequence (Q6NSN2 1-522): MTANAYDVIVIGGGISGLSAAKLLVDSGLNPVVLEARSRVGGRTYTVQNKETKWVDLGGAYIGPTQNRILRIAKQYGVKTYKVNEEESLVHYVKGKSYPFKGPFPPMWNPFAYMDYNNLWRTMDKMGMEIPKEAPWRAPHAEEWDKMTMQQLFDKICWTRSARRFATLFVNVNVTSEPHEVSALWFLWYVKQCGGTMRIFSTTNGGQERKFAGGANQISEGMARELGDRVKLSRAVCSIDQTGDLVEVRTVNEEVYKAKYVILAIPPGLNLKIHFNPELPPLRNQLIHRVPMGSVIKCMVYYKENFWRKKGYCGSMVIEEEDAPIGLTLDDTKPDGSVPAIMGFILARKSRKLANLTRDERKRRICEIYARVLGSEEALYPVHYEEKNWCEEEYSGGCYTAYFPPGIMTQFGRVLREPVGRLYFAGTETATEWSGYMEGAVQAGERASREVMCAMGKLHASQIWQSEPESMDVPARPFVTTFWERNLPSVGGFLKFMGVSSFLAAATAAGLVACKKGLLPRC
# B1: zebrafish monoamine oxidase (zMAO) (Danio rerio) (protein)
# chain: T1 sequence (Q6NSN2 1-522)
# Columns and labels:
# [1] = molecular target: T1, zebrafish monoamine oxidase (zMAO); assay: steady-state kinetics, benzaldehyde formation at […] nm; format: biochemical; details: read-out: Benzylamine
# [2] = molecular target: T1, zebrafish monoamine oxidase (zMAO); assay: irreversible inhibition of purified enzyme; format: biochemical
# [3] = molecular target: T1, zebrafish monoamine oxidase (zMAO); assay: specific activity of purified enzyme, 4-hydroxyquinoline formation at […] nm; format: biochemical
# [4] = substrate: NCCc1ccccc1; assay: steady-state kinetics, Amplex red/peroxidase-coupled assay; format: biochemical, Danio rerio; details: covalent FAD ([…]α-S-cysteinylFAD); pH 7.4; 25.0 °C
molecule,measurement,setting,value
NCc1ccccc1 [Benzylamine],Km,[1],82.2 ± 9 µM
C#CCN(C)CCCOc1ccc(Cl)cc1Cl [Clorgyline],IC50,[2],64 µM
C#CCN(C)C(C)Cc1ccccc1 (stereo not shown) [Deprenyl],IC50,[2],6.5 µM
NCCC(=O)c1ccccc1N [Kynuramine],"specific activity of purified enzyme, 4-hydroxyquinoline formation at 316 nm",[3],1.5 U/mg
B1,Km,[4],86 ± 13 µM
same,kcat,[4],3.4 ± 0.145 s⁻¹
same,kcat/Km,[4],39500 ± 3170 M⁻¹ s⁻¹

# — PMC2829425 (Protein expression and purification, 2010)
